In patent publication US7629310B2, “RhoB as a suppressor of cancer cell growth, cell transformation, and metastasis” (University of South Florida, priority 2000, dated 2009):
Values joined by “and” are separate entries in the source; they are usually repeats but may differ in a detail not shown here. Equal values may be shown once.

What was measured:
NIH3T3 cells [1] = assay: 5-FU-induced apoptosis (Annexin V, flow cytometry) in NIH3T3 cells; format: cell-based; settings: for 5-FU apoptotic rate after transfection: NIH3T3, transfected 24 hours then 5-FU 48 hours (FIG. 10A), control 28-30%; for percent of apoptosis induced by 5-FU after transfection: parental NIH3T3, transfected 24 hrs then 5-FU 48 hrs, control 28%
Procedure: Apoptosis Assay. Cells were collected by trypsinization, washed in wash buffer and stained with Annexin V and 7-AAD according to manufacturer's recommendation (PharMingen, San Diego, Calif.). Data acquisition and analysis was performed by the Flow Cytometry Core Facility at the H. Lee Moffitt Cancer Center (Tampa, Fla.). All the samples were performed in duplicate and a representative of 3 independent experiments were reported here.

H-Ras/NIH3T3 cells [2] = assay: Cell proliferation, H-Ras-transformed NIH3T3; format: cell-based; settings: H-Ras-transformed NIH3T3, 0-96 hours
Procedure: Cell Proliferation. Cells were collected and examined for cell number by trypan blue exclusion and hemocytometer counting under microscope at 0 h, 24 h, 48 h, 72 h and 96 h. All the samples were performed in triplicate and the averages of 3 independent experiments were reported.

NIH3T3 cells [3] = assay: Wound healing migration assay in NIH3T3 cells; format: cell-based; settings: NIH3T3, 24 hours after wounding (FIG. 8D)
Procedure: (§1) Parental NIH3T3 (FIG. 8A) were transiently transfected with pcDNA3 vector control, H-Ras61L, CA-PI3K, or CA-Akt in the presence or absence of RhoA or RhoB or pcDNA3 for 36 hours. The cells were then split and cultured for another 4 weeks. The plates were examined for focus formation by staining. H-Ras/3T3 cells (FIG. 8B) and PANC-1 cells (FIG. 8C) were transiently transfected with pcDNA3 vector control, CA-Akt, or WT-Akt in the presence or absence of RhoA, RhoB, or pcDNA3 for 36 hours. The cells were then split and analyzed for their migration capabilities through collagen type I coated transfilters as described in the Materials and Methods section. NIH3T3 cells (FIGS. 8D and 8E) were transiently transfected with pcDNA3 vector control, H-Ras61L, CA-Akt, or WT-Akt in the presence or absence of RhoA, RhoB, or pcDNA3 for 36 hours. The monolayers were then scratched with a 20 μl pipette tip and micro-photographed at the time points indicated for analyzing their capability to migrate into and fill the wounded area.
The ability of RhoB to inhibit cancer cell migration was further confirmed in a different assay where cells are induced to migrate by physical wounding of cells plated on fibronectin pre-coated plates.

H-Ras/NIH3T3 cells [4] = assay: Anoikis assay in H-Ras-transformed NIH3T3 cells; format: cell-based; settings: H-Ras-transformed NIH3T3, poly-HEMA plates
Procedure: Anoikis Assay. Cells were collected by trypsinization, washed twice with PBS, and re-suspended in serum-free medium containing 0.5% BSA; 5.0×10^5 cells were then seeded in triplicates into 60-mm plates pre-coated with poly(2-hydroxyethylmethacrylate) (poly-HEMA, SIGMA) according to the data sheet of the agents. 24 hrs later the cellular viability was determined by trypan blue exclusion.

H-Ras/3T3 cells = assay: Migration through collagen type I coated transfilters, H-Ras/3T3 cells; format: cell-based; settings: H-Ras/3T3 cells (FIG. 8B)
Procedure: as §1

A-549 cells = assay: Focus/colony formation of A-549 cells in G418 medium; format: cell-based, human; settings: transfected A-549 cells, 3 weeks
Procedure: Focus Formation Assay. NIH3T3 cells were seeded into 60-mm plates (1×10^6 cell/per plate) one day prior to gene transfection. […] Two days after transfection, the cells were seeded into 60-mm plates at a density of 2.5×10^3/per plate, and maintained in DMEM medium containing 1.5% CBS. The medium was changed every 3 days. 3-4 weeks later the cells were washed once with PBS and once with PBS/methanol (1:1), then washed with fresh anhydrous methanol and covered with crystal violet stain for 1 min at room temperature. Finally, the stain was displaced with water. The focus formation assay for A-549 cells was similarly performed as above except that following the transfection the cells were cultured in DMEM complete medium containing 400 μg/ml of geneticin (G418, […], Inc.). 3 weeks later, the cells were fixed with anhydrous methanol and stained with crystal violet; the plates were photographed. All the samples were performed in triplicate and a representative of 3 independent experiments was reported in the figure(s) and averages±standard deviation reported in the table.

PANC-1 cells = assay: Migration through collagen type I coated transfilters, PANC-1 cells; format: cell-based, human; settings: PANC-1 cells (FIG. 8C)
Procedure: as §1

MMP-2 = MMP-2 expression in conditioned medium of PANC-1 and PC3 cells (Western blotting); format: cell-based, human; settings: conditioned medium (FIG. 9C)
Procedure: HRas/3T3 cells (FIG. 9A) and PANC-1 cells (FIG. 9B) were transiently transfected with pcDNA3 vector control, H-Ras61L, CA-Akt, or WT-Akt in the presence or absence of RhoA, RhoB, or pcDNA3 for 36 hours. The cells were then split and analyzed for their invading capabilities through […]-coated transfilters as described in the Materials and Methods section. PANC-1 and PC3 cells (FIG. 9C) were transiently transfected with pcDNA3, with H-Ras61L in the presence or absence of RhoA, or RhoB for 36 hours. The cells were then serum-starved for another 36 hours; the conditioned medium was collected and 20 μg protein were analyzed for MMP-2 expression by Western Blotting.
One pivotal step in these processes is the ability of cancer cells to cut through the extracellular matrix. This is accomplished by a cascade of proteinases, among which matrix metalloproteinases (MMPs) play a pivotal role (Yoon, S. O. et al., J Biochem Mol Biol, 2003, 36:128-37; Stamenkovic, I. Semin Cancer Biol, 2000, 10:415-33). […] To this end, PANC-1 and PC3 cells were treated with LY294002, or transfected with pcDNA3-RhoA or RhoB, and the conditioned culture medium was collected and analyzed for MMP-2 expression by anti-MMP-2 Western blotting as described in the Materials and Methods section.

NIH3T3 cells [5] = assay: Anchorage-independent growth (soft agar) assay in NIH3T3 cells; format: cell-based; settings: 5 weeks
Procedure: Anchorage-independent Growth Assay. NIH3T3 cells were similarly transfected as above. The cells were trypsinized, and 2.5×10^3 cells were suspended in triplicate in top soft agar layer (DMEM complete medium containing 0.35% agar) and seeded into 60-mm plates pre-coated by a 3-mm layer of lower agar (DMEM complete medium containing 0.7% agar). The cells were fed every 5 days for 5-6 weeks and finally stained with MTT (SIGMA). All the experiments were performed in triplicate and a representative of 3 independent experiments was reported in the figure(s) and averages±standard deviation in the table.

Compound | apoptosis (NIH3T3 cells [1]; NIH3T3, 5-FU 48 hours (FIG. 10A)) | apoptosis (NIH3T3 cells [1]; parental NIH3T3, 5-FU 2.0 μM 48 hrs (FIG. 4B)) | 5-FU apoptotic rate after transfection (NIH3T3 cells [1]) | percent of apoptosis induced by 5-FU after transfection (NIH3T3 cells [1]) | growth rate (H-Ras/NIH3T3 cells [2]) | wound healing (NIH3T3 cells [3]) | anoikis (H-Ras/NIH3T3 cells [4]) | ability to migrate through collagen type I (H-Ras/3T3 cells) | number of colonies (A-549 cells) | ability to migrate through collagen type I (PANC-1 cells) | MMP-2 protein secreted (MMP-2) | # of soft agar colonies (NIH3T3 cells [5]; oncogene: H-Ras) | # of soft agar colonies (NIH3T3 cells [5]; oncogene: K-Ras) | # of soft agar colonies (NIH3T3 cells [5]; oncogene: N-Ras)
O=c1[nH]cc(F)c(=O)[nH]1 [5-FU, 5-fluorouracil] | 28-30% | 27-32% |  |  |  |  |  |  |  |  |  |  |  | 
RhoA: closely related family member sharing 86% sequence identity with RhoB; wild-type, in HA-tagged pcDNA3, transfected as control |  |  | slightly protected | no significant effect | enhanced the rate of growth | accelerated | slightly protected from anoikis | migrated | 593+/−43 | migrated | increased MMP-2 levels, but to a lesser extent | 77 and 77 ± 12 | 65 and 65 ± 7 | 89 and 89 ± 14
RhoB: low molecular weight GTPase; wild-type RhoB subcloned into HA-tagged pcDNA3 and ectopically expressed by transfection |  |  | enhanced | 39% | inhibited the growth rate | inhibited | enhanced anoikis | dramatically hindered | 178+/−19 | dramatically hindered | remarkably reduced | 21 and 21 ± 3 | 18 and 18 ± 5 | 26 and 26 ± 7
